According to JP2006056855A, “免疫賦活剤、抗腫瘍剤、抗老化剤、抗肥満剤及び皮膚化粧料” (Maruzen Pharmaceutical Co Ltd, priority 2004, dated 2006):
Values after ≈ are worked out from the molar mass of the structure shown.

Experiments:
[1] = system: normal human epidermal keratinocytes (NHEK) [正常ヒト皮膚表皮角化細胞(NHEK)]; assay: Epidermal keratinocyte proliferation test (試験例4), MTT assay; type: cell-based; details: 72 h, sample solution 3.125 μg/mL, 3 days, St/Ct×100 (no sample = 100%), read-out: epidermal keratinocyte proliferation promotion rate
[2] = system: human breast cancer-derived cells (MCF-7) [ヒト乳癌由来細胞(MCF−7)]; assay: Estrogen-like action test (試験例2), MTT assay; type: cell-based; details: MCF7, sample solution 3.125 μg/mL, A/B×100 (no sample = 100%), read-out: estrogen-like action rate
[3] = system: human normal skin fibroblasts (NB1RGB) [ヒト正常皮膚線維芽細胞(NB1RGB)]; assay: Fibroblast proliferation test (試験例3), MTT assay; type: cell-based; details: 72 h, sample solution 12.5 μg/mL, 100 μL added per well, 3 days, (St−Sb)/(Ct−Cb)×100 (no sample = 100%), read-out: fibroblast proliferation promotion rate
[4] = target: cyclic AMP phosphodiesterase [サイクリックAMPホスホジエステラーゼ]; assay: Cyclic AMP phosphodiesterase activity inhibition test (試験例5), HPLC; type: biochemical; details: sample concentration at 50% inhibition of cyclic AMP phosphodiesterase activity, by interpolation; pH 7.5, 37℃, 30 min

IC50 [4]: 178.9 µg/mL (≈ 136 µM)
Structure (SMILES): CC1OC2OC3C(OCC(O)C3O)OC(=O)C34CCC(C)(C)CC3C3=CCC5C6(C)CC(O)C(OC7OC(CO)C(O)C(O)C7OC7OCC(OC(=O)CC(C)(O)CC(=O)OC1C(OC1OCC(O)C(O)C1O)C2O)C(O)C7O)C(C)(CO)C6CCC5(C)C3(C)CC4 (stereo not shown) [ツベイモシドI, ツベイモシドI(tubeimoside I)]
activity at 3.125 µg/mL [1]: 139.4 ± 1.3%
activity at 3.125 µg/mL [2]: 132 ± 3%
activity at 12.5 µg/mL [3]: 127 ± 2.3%
